Test results published in US6872850B2, “Small molecule inhibitors of secretion of proteins encoded by ARE-mRNAs” (Message Pharmaceuticals, priority 2001, dated 2005).

How the values were obtained:
3′ UTR of the TNFα gene = test: cell-based luciferase reporter assay, 5B cell line (luciferase gene with entire 3′ UTR of the TNFα gene); design: species or system mouse; settings: for Luciferase 5B (% of DMSO control) / Luciferase 5B/3B (% of DMSO control 5B)/(% of DMSO control 3B): 10 μM compound; for Luciferase 5B (% of DMSO control): 1 h, then LPS, 5B cell line; for Luciferase 5B/3B (% of DMSO control 5B)/(% of DMSO control 3B): ratio of 5B to control 3B cell line
Procedure: The candidate compounds were tested in a high-throughput, cell-based luciferase reporter assay. For this assay, a commercially available mouse macrophage Raw 264.7 cell line was stably transfected with a construct containing the CMV promoter operably linked to the luciferase gene which was modified using standard molecular biology techniques to contain the entire 3′ UTR of the TNFα gene. This 3′ UTR is important for the stability and translation of TNFα in cells. To control for effects of candidate compounds that are not specific for TNFα, a control cell line, called “3B,” was generated by stably transfecting the 264.7 cell line with a commercially available construct containing the luciferase gene (without the addition of the heterologous 3′ UTR of the TNFα gene) under the regulation of the CMV promoter.
[…] Then, lipopolysaccharide (LPS) was added to stimulate TNFα secretion. Luciferase activity was measured by determining the luminescence intensity due to the reaction of lucifern, ATP, Mg^2+, and molecular O2 (see, for example, Ausubel et al., supra). The luciferase activity in a cell incubated with a candidate compound was reported as a percentage of the luciferase activity for the corresponding cell incubated with DMSO vehicle only.
After correction for any effect caused by the administration of the DMSO only vehicle control, the effect of a candidate compound on luciferase activity in the 3B control cell line represents the global effect of the compound on any step required for expression or activity of luciferase protein, such as luciferase gene transcription, mRNA processing, mRNA stability, translation, protein stability, or enzymatic activity. […] In this case, the luciferase activity in the 5B cell line treated with the DMSO vehicle control is similar to the luciferase activity in the control 3B cell line treated with the candidate compound. Thus, the response of the 5B cell line (as a percent of the DMSO control) and the ratio of the luciferase activity in the 5B cell line (as a percent of the DMSO control) to the luciferase activity in the control 3B cell line (as a percent of the DMSO control) are similar. In desirable embodiments, the response of the 5B cell line and the 5B/3B ratio differ by less than 50, 40, 30, 20, 10, or 5%.

TNFα = test: ELISA of TNFα secreted into the media after LPS; format: cell-based; settings: for TNFα Secretion (% of DMSO control): 10 μM compound, 1 h, then LPS
Procedure: The ability of candidate compounds to reduce the amount of secreted TNFα was also directly tested using an ELISA assay. […] A standard ELISA analysis was used to measure the amount of TNFα secreted into the media (see, for example, Ausubel et al., supra). The effect of a candidate compound on TNFα secretion in this assay is reported in the following tables as a percentage of the amount of TNFα secreted by a control cell that was administered a DMSO vehicle control only.

| Compound | Luciferase 5B (% of DMSO control) (3′ UTR of the TNFα gene) | Luciferase 5B/3B (% of DMSO control 5B)/(% of DMSO control 3B) (3′ UTR of the TNFα gene) | TNFα Secretion (% of DMSO control) (TNFα) | effect on luciferase activity in the 5B cell line (luciferase assay), in words (3′ UTR of the TNFα gene) | effect on amount of secreted TNFα (direct TNFα secretion assay), in words (TNFα; after LPS stimulation) |
| --- | --- | --- | --- | --- | --- |
| CC(C)C[C@H](NC(=O)c1ccc(C(=NNC(=N)N)c2ccccc2)cc1)C(=O)N1CCN(C(=O)[C@H](Cc2ccccc2)NC(=O)c2ccc(C(=O)c3ccccc3)cc2)CC1.O=C(O)C(F)(F)F [MES 10168, (4-E)-Guanylhydrazone of 1-[(S)-N-(4-benzoylbenzoyl)-2-amino-3-phenylpropanoyl]-4-[(2S)-N-(4-benzoylbenzoyl)-2-amino-4-methylpentanoyl]-1,4-piperazine trifluoroacetate] | 104 % of DMSO control | 127 (% of DMSO control 5B)/(% of DMSO control 3B) | 35 % of DMSO control | – | – |
| CC(=NNC(=N)N)c1cccc(C(=O)N[C@@H](CC(C)C)C(=O)N2CCN(C(=O)[C@H](Cc3ccccc3)NC(=O)c3ccc(C(=O)c4ccccc4)cc3)CC2)c1.O=C(O)C(F)(F)F [MES 10173, (4-E)-Guanylhydrazone of 1-[(S)-N-(4-benzoylbenzoyl)-2-amino-3-phenylpropanoyl]-4-[(2S)-N-(3-acetylbenzoyl)-2-amino-4-methylpentanoyl]-piperazine trifluoroaceteate] | 26 % of DMSO control | – | 42 % of DMSO control | – | – |
| O=C(N[C@@H](Cc1ccccc1)C(=O)N1CCN(C(=O)CCC(=O)N2CCN(c3ccccc3)CC2)CC1)c1ccc(C(=O)c2ccccc2)cc1 [MES 10229] | 31 % of DMSO control | 49 (% of DMSO control 5B)/(% of D | 65 % of DMSO control | – | – |
| CC(C)C[C@H](NC(=O)c1ccc(C(=O)c2ccccc2)cc1)C(=O)N1CCN(C(=O)CCC(=O)N2CCN(c3ccccc3)CC2)CC1 [MES 10230] | 41 % of DMSO control | 52 (% of DMSO control 5B)/(% of D | 77 % of DMSO control | – | – |
| C/C(=N\NC(=N)N)c1cccc(C(=O)N[C@@H](CC(C)C)C(=O)N2CCN(C(=O)[C@H](Cc3ccccc3)NCc3ccccc3)CC2)c1 [MES 10241] | 68 % of DMSO control | 90 (% of DMSO control 5B)/(% of D | 100 % of DMSO control | – | – |
| C/C(=N\NC(=N)N)c1cccc(C(=O)N[C@@H](CC(C)C)C(=O)N2CCN(C(=O)[C@H](Cc3ccccc3)NCc3ccc(I)cc3)CC2)c1 [MES 10242] | 53 % of DMSO control | 50 (% of DMSO control 5B)/(% of D | 67 % of DMSO control | – | – |
| C/C(=N\NC(=N)N)c1cccc(C(=O)N[C@@H](CC(C)C)C(=O)N2CCN(C(=O)[C@H](Cc3ccccc3)NCc3ccc([N+](=O)[O-])cc3)CC2)c1 [MES 10243] | 81 % of DMSO control | 79 (% of DMSO control 5B)/(% of D | 73 % of DMSO control | – | – |
| C/C(=N\NC(=N)N)c1cccc(C(=O)N[C@@H](CC(C)C)C(=O)N2CCN(C(=O)[C@H](Cc3ccccc3)NCc3ccc(-c4ccccc4)cc3)CC2)c1 [MES 10244] | 46 % of DMSO control | 36 (% of DMSO control 5B)/(% of D | 48 % of DMSO control | – | – |
| CC(C)CC(NC(=O)c1ccc(C(=NNC(=N)N)c2ccccc2)cc1)C(=O)N1CCN(C(=O)C(Cc2ccccc2)NC(=O)c2ccccc2)CC1 (stereo not shown) [MES 10247] | 37 % of DMSO control | 41 (% of DMSO control 5B)/(% of D | 39 % of DMSO control | – | – |
| CC(C)CC(NC(=O)c1ccc(C(=NNC(=N)N)c2ccccc2)cc1)C(=O)N1CCN(C(=O)C(Cc2ccccc2)NC(=O)c2ccccc2)CC1 (stereo not shown) [MES 10248] | 56 % of DMSO control | 72 (% of DMSO control 5B)/(% of D | 39 % of DMSO control | – | – |
| CC(C)C[C@H](NC(=O)c1ccccc1)C(=O)N1CCN(C(=O)[C@H](Cc2ccccc2)NC(=O)c2ccc(/C(=N/N=C(N)N)c3ccccc3)cc2)CC1.O=C(O)C(F)(F)F [MES 10249, (E)-Guanylhydrazone of 1-[(S)-N-(4-benzoylbenzoyl)-2-amino-3-phenylpropanoyl]-4-[(2S)-N-(benzoyl)-2-amino-4-methylpentanoyl]-1,4-piperazine trifluoroacetate] | 58 % of DMSO control | 68 (% of DMSO control 5B)/(% of D | 40 % of DMSO control | – | – |
| CC(C)C[C@H](NC(=O)c1ccccc1)C(=O)N1CCN(C(=O)[C@H](Cc2ccccc2)NC(=O)c2ccc(/C(=N\N=C(N)N)c3ccccc3)cc2)CC1.O=C(O)C(F)(F)F [MES 10250, (Z)-Guanylhydrazone of 1-[(S)-N-(4-benzoylbenzoyl)-2-amino-3-phenylpropanoyl]-4-[(2S)-N-(benzoyl)-2-amino-4-methylpentanoyl]-1,4-piperazine trifluoroacetate] | 37 % of DMSO control | 49 (% of DMSO control 5B)/(% of D | 40 % of DMSO control | – | – |
| C/C(=N\NC(=N)N)c1cccc(C(=O)N[C@@H](CC(C)C)C(=O)N2CCN(C(=O)[C@H](Cc3ccccc3)NC(=O)c3ccc(OCc4ccccc4)cc3)CC2)c1 [MES 10307] | 38 % of DMSO control | 40 (% of DMSO control 5B)/(% of D | 45 % of DMSO control | – | – |
| (1-Z,4-E)-Bisguanylhydrazone of 1-[(S)-N-(4-benzoylbenzoyl)-2-amino-3-phenylpropanoyl]-4-[(2S)-N-(3-acetylbenzoyl)-2-amino-4-methylpentanoyl]-piperazine bis trifluoroacetate [MES 10172] | 38 % of DMSO control | 49 (% of DMSO control 5B)/(% of DMSO control 3B) | 60 % of DMSO control | – | – |
| (E,E)-Bisguanylhydrazone of 1-[(S)-N-(4-benzoylbenzoyl)-2-amino-3-phenylpropanoyl]-4-[(2S)-N-(3-acetylbenzoyl)-2-amino-4-methylpentanoyl]-1,4-piperazine bis trifluoroacetate [MES 10171] | 20 % of DMSO control | 24 (% of DMSO control 5B)/(% of DMSO control 3B) | 57 % of DMSO control | – | – |
| (E,E)-Bisguanylhydrazone of 1-[(S)-N-(4-benzoylbenzoyl)-2-amino-3-phenylpropanoyl]-4-[(2S)-N-(4-benzoylbenzoyl)-2-amino-4-methylpentanoyl]-1,4-piperazine bis trifluoroacetate [MES 10164] | 29 % of DMSO control | 31 (% of DMSO control 5B)/(% of DMSO control 3B) | 45 % of DMSO control | inhibited TNFα secretion | inhibited TNFα secretion |
